The source made the active and inactive calls. The rule behind the calls is not given here.
Columns and labels:
[1] = biological target: T1, Signal transducer and activator of transcription 1-alpha/beta (Homo sapiens) (UniProt P42224); assay: Inhibition of STAT1 phosphorylation in human SK-HEP1 cells at 30 uM by Western blot analysis; assay type: cell-based
T1 sequence (whole entry): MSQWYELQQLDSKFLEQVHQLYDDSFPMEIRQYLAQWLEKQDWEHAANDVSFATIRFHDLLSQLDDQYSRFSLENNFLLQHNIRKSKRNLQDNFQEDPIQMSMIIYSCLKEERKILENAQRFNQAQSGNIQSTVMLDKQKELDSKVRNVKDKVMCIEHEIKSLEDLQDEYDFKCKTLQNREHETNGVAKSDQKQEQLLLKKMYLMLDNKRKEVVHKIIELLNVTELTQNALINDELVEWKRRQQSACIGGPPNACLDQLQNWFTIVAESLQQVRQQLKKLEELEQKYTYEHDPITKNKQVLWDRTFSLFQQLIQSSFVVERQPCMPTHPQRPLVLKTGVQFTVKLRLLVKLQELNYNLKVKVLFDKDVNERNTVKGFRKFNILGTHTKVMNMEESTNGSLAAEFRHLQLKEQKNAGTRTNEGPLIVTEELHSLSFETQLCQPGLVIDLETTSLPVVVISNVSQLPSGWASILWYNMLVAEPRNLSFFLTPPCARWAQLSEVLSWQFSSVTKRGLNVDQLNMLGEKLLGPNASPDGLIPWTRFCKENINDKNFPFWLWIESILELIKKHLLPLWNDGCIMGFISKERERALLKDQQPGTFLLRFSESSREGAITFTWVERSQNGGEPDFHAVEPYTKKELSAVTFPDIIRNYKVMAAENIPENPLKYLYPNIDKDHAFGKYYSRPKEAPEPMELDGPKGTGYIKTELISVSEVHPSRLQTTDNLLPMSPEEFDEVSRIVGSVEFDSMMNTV

[2] = system: SK-HEP1; assay: Induction of cell cycle arrest in human SK-HEP1 cells assessed as S phase accumulation at 20 uM incubated for 24 hrs by propidium iodide staining based flow cytometry analysis (reference value: 26.72%); assay type: functional
[3] = biological target: MAP kinase p38 (Homo sapiens) (UniProt O15264+Q15759+Q16539+P53778); assay: Inhibition of p38 phosphorylation in human SK-HEP1 cells at 30 uM by Western blot analysis; assay type: cell-based
[4] = system: Mus musculus; assay: Downregulation of UBE2S expression in mouse liver at 40 mg/kg measured after 30 days by immunohistochemical staining analysis; assay type: functional, organism-based; conditions: time 30.0 day
[5] = system: HepG2; assay: Antiproliferative activity against human HepG2 cells at 25 uM incubated for 24 hrs by alamar blue assay; assay type: functional, cell-based

inhibition [1]: inactive
inhibition [3]: inactive
Structure (SMILES): COc1cc2c(c(O)c1OC)-c1c(cc3c(c1OC)OCO3)C[C@H](C)[C@H](C)C2
Activity [2]: 22.3%
Activity [4]: Active
Activity [5]: Active

Reference: ChEMBL document CHEMBL5038591, “Identification of a Novel TAR RNA-Binding Protein 2 Modulator with Potential Therapeutic Activity against Hepatocellular Carcinoma” (J Med Chem, 2021)
